The record followed here is US6946458B2, “N-thiolated beta-lactams: novel antibacterial agents for methicillin-resistant Staphylococcus aureus” (University of South Florida, priority 1999, dated 2005).

Read-outs that look alike come from different tables or passages of the source. A value given as a limit tells only on which side of the number the result lay.

Experiment [1] has as its system S. saprophyticus (ATCC 3552). In words: Kirby-Bauer agar disk diffusion. Format: cell-based, Staphylococcus saprophyticus. The note with it: 6-mm disks, 20 μg test compound. In a few lines:
(§1)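 Agar disk diffusion used 6-mm air-dried disks carrying 20 μg of compound. Values are mean diameters (mm) of the growth-inhibition zone at 24 h, from triplicate experiments. S. epidermidis and S. simulans were clinical isolates.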

The next experiment has as its system Micrococcus luteus. In words: Kirby-Bauer agar disk diffusion. The format is cell-based. The note with it: 6-mm disks, 20 μg test compound. In a few lines: as §1
On the technique in general: In agar diffusion tests the substance spreads into inoculated agar from a disc or well.

In experiment [2] the test system is Staphylococcus aureus (ATCC 25923). In words: Kirby-Bauer agar disk diffusion. The format is cell-based. The conditions noted are these: 6-mm disks, 20 μg test compound. A digest of the protocol:
as §1

The test system of experiment [3] is Staphylococcus epidermidis. Description: Kirby-Bauer agar disk diffusion. Format: cell-based. The note with it: 6-mm disks, 20 μg test compound. In a few lines: as §1
The test system of another experiment is MRSA cells. Description: light microscopy after Gram staining. The format is cell-based, Staphylococcus aureus. The text has this: (§2) In fact, only small isolated colonies of surviving cells can be found, all of which appear perfectly normal in size, shape, smoothness, and clustering behavior. […] Pulse radiolabeling experiments indicate that the lactam of FIG. 1D blocks the bacterial uptake of ^3H-uridine and ^3H-leucine at low (MIC) levels (Lim, D. V. et al. Microbiology, 1977, 33:328; Champney, W. S. and C. G. Tober Antimicrob. Agents and Chemother., 2000, 44:1413).
(FIGS. 14A-14C) S. aureus is a Gram-positive microorganism, and thus reacts with Gram stain to produce a purple coloration due to binding of the stain to the peptidoglycan. 100% of MRSA cells grown either in the absence or presence of the lactam of FIG. 11F take on a purple color when Gram stained (top and center images, next page). In contrast, for MRSA cells treated with penicillin G or vancomycin (cell wall synthesis inhibitors), only about 30% of the cells are Gram-stained purple, with the remainder of the cells appearing pink (bottom image, next page) due to morphologically altered walls. This is strong evidence that the N-methylthio lactams are not affecting late stage events in cell wall biosynthesis.

The next experiment has as its system MRSA strains. Description: MIC by agar dilution. Format: cell-based, Staphylococcus aureus. The note with it: Staphylococcus aureus, MRSA, read-out: Minimum inhibitory concentration (MIC). From the text:
However, the N-alkylthio substituent is required, since reduction to the N—H analogue completely destroys the biological activity.

Experiment [4] relates to cultures of S. aureus and MRSA. In words: electron microscopy of cell morphology. The format is cell-based, Staphylococcus aureus. The conditions noted are these: Example 1; electron microscopy, high magnification.
From the text: The structure-bioactivity patterns observed for these N-thiolated lactams are highly atypical for a β-lactam antibiotic. The compounds are lipohilic and devoid of the typical acidic ring functionality required for recognition by the penicillin binding proteins. The implication that the lactams set forth in FIGS. 1A-1I are not acting in the same manner or on the same enzymes as the traditional β-lactam drugs is supported by electron microscopy experiments, which confirm that cell morphology is unaffected by the lactam of FIG. 1D (Greenwood, D. et al. Science, 1969, 163:1076).
as §2
Light microscopy and scanning electron microscopy experiments have enabled us to look for cell wall damage in cultures of S. aureus and MRSA grown in the presence of N-methylthio lactam (FIG. 11F) over a range of different concentrations and cell growth conditions. […] Those cells that survive the treatment appear normal (coccal) and fully mature.

Another experiment deals with Staph aureus 525. In words: Kirby-Bauer agar disk diffusion. Format: cell-based, Staphylococcus aureus.
A further experiment deals with MRSA USF656. In words: Kirby-Bauer agar disk diffusion. The note with it: for zone of inhibition at 20 µg/disc: Staphylococcus aureus, MRSA. The arrangement: Kirby-Bauer Disc Diffusion Test Results: unit not given here. Format: cell-based, Staphylococcus aureus. A digest of the protocol:
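Zones of inhibition, in mm and averaged over three runs, are measured after 24 h around 6-mm disks dosed with 20 μg compound on agar lawns of β-lactamase-producing MRSA.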

For `CC1(C)S[C@@H]2[C@H](NC(=O)Cc3ccccc3)C(=O)N2[C@H]1C(=O)O` [PenG, penicillin G, reference compound], the zone of inhibition at 20 µg/disc in [1] (Staphylococcus saprophyticus, ATCC3552, Table 1, 24 h, triplicate, read-out: zone of growth inhibition, average diameter) is 30 mm; in the experiment with Micrococcus luteus (Micrococcus luteus, Table 1, 24 h, triplicate, read-out: zone of growth inhibition, average diameter), 40 mm; in experiment [2] (Staphylococcus aureus, ATCC25923, Table 1, 24 h, triplicate, read-out: zone of growth inhibition, average diameter), 34 mm; in experiment [3] (Staphylococcus epidermidis, Table 1, 24 h, triplicate, read-out: zone of growth inhibition, average diameter) it was 50 mm; in the experiment on Staph aureus 525 (Staphylococcus aureus, 525, Table 4, 20 μg disk loading, read-out: Zones of Inhibition) it was 33 mm; in the experiment with MRSA USF656 (Table 1, 6-mm disks, 20 μg test compound, 24 h, triplicate, read-out: zone of growth inhibition, average diameter), 12 mm. Further, the zone of inhibition at 20 µg/disc with MRSA USF656 (Table 4, 20 μg disk loading, read-out: Zones of Inhibition) turned out to be 12 mm; with MRSA USF656 (Table 6, 20 μg disk loading, read-out: The Zone of Inhibition), 10 mm. Besides, the “zone of growth inhibition, average diameter” value in [1] (Table 3, 24 hours) is given as 30 mm; in the experiment with Micrococcus luteus (Table 3, 24 hours), 40 mm; in experiment [2] (Table 3, 24 hours), 34 mm; in [3] (Table 3, 24 hours), 50 mm; in the experiment on MRSA USF656 (Table 3, 6-mm disks, 20 μg test compound, 24 hours), 12 mm. Moreover, in the experiment with MRSA cells (Example 1), the “coloration upon Gram staining” value is given as “pink coloration”. In the experiment with MRSA cells (Example 5, MRSA cells grown in presence of the substance), the “cells Gram-stained purple” value was “about 30%”. For the same compound, the MIC in the experiment with MRSA strains is above 64 µg/mL. Also, in experiment [4], the cell morphology entry is “wrinkled, deformed, or even sheared”. Besides, the “Kirby-Bauer Disc Diffusion Test Results” value with Staph aureus 525 (Table 5) is 33; in the experiment on MRSA USF656 (Table 5, beta-lactamase producing strain) it was 10.
